The values that follow come from ChEMBL document CHEMBL6121021, “Design and Synthesis of Topoisomerases-Histone Deacetylase Dual Targeted Quinoline-Bridged Hydroxamates as Anticancer Agents” (J Med Chem, 2025).

As a reminder, the half-life is the time in which the quantity being followed falls by half. As usually defined, the IC50 is the concentration at which inhibition is half-maximal.

The subject of data set [1] is MDA-MB-231. Briefly: Anti-cancer activity against human MDA-MB-231 cells assessed as decrease in CDK-4 level at 10 uM incubated for 48 hrs by immunoblot analysis. It is filed as functional, cell-based. On the technique in general: In western blotting, separated proteins are transferred to a membrane and probed.
Data set [2] relates to A549. As to the kind of experiment: Induction of apoptosis in human A549 cells by Annexin-V/PI staining based flow cytometry. The class given is functional, cell-based. For orientation: A flow cytometer gives signals particle by particle.
Data set [3] concerns MDA-MB-231. As to the kind of experiment: Anti-cancer activity against human MDA-MB-231 cells assessed as decrease in p21 level at 1 uM incubated for 48 hrs by immunoblot analysis. The class given is functional, cell-based.
Data set [4] relates to MDA-MB-231. As to the kind of experiment: Anti-cancer activity against human MDA-MB-231 cells assessed as decrease in p21 level at higher concentration incubated for 48 hrs by immunoblot analysis. The class given is functional, cell-based.
In data set [5] the test system is MDA-MB-231. Briefly: Anti-cancer activity against human MDA-MB-231 cells assessed as decrease in PCNA level at 10 uM incubated for 48 hrs by immunoblot analysis. The class given is functional, cell-based.
In data set [6] the test system is A549. Briefly: Induction of mitophagy in human A549 cells at 500 nM by MitoTracker Green dye based analysis. It is filed as functional, cell-based.
The nature of data set [7]: Metabolic stability in human hepatocytes assessed as half life at 2 uM measured upto 120 min by LC-MS/MS analysis. It is filed as ADME, cell-based, Hepatocyte.
Data set [8] can be described thus: Drug metabolism in human hepatocytes assessed as demethylation M6 metabolite formation at 10 uM by LC-MS/MS analysis. The class given is ADME, cell-based, Hepatocyte.
Data set [9] deals with A549. As to the kind of experiment: Antitumor activity against human A549 cells xenografted in athymic nude Crl:NU-Foxn1nu mouse assessed as decrease in tumor size at 15 to 30 mg/kg, po administered twice a week for 1 month. It is filed as functional, organism-based. As to conditions: dose 15-30 mg/kg, time 1.0 months.
The nature of data set [10]: Drug metabolism in human hepatocytes assessed as beta-oxidation M2 metabolite formation at 10 uM by LC-MS/MS analysis. The class given is ADME, cell-based, Hepatocyte.
Data set [11] can be described thus: Drug metabolism in human hepatocytes assessed as glucuronide conjugated M8 metabolite formation at 10 uM by LC-MS/MS analysis. It is filed as ADME, cell-based, Hepatocyte.
For data set [12], the system named is A549. Briefly: In vivo inhibition of epithelial-mesenchymal transition in human A549 cells xenografted in athymic nude Crl:NU-Foxn1nu mouse assessed as decrease in Twist mRNA level at 30 mg/kg, po administered twice a week for 1 month by qPCR analysis. The class given is functional, organism-based. As to conditions: time 1.0 months.
Data set [13] deals with MDA-MB-231. As to the kind of experiment: Anti-cancer activity against human MDA-MB-231 cells assessed as decrease in PCNA level incubated for 48 hrs by immunoblot analysis. The class given is functional, cell-based. Conditions: dose 1-10 µM.
Data set [14] is described as follows: Metabolic stability in mouse hepatocytes assessed as hepatic clearance at 2 uM measured upto 120 min by LC-MS/MS analysis. The class given is ADME, cell-based, Hepatocyte.
In data set [15] the test system is H9c2. Briefly: Antiproliferative activity against rat H9c2 cells at 10 uM by JC-1 staining based analysis. It is filed as toxicity, cell-based. Conditions: h9c2, 10 µM.
Data set [16] addresses Histone deacetylase 5 (Homo sapiens, UniProt Q9UQL6). Briefly: Inhibition of His-tagged recombinant human HDAC5 catalytic domain by fluorogenic assay.
Data set [17] concerns A549. As to the kind of experiment: Induction of apoptosis in human A549 cells at 500 nM by Annexin-V/PI staining based flow cytometry. The class given is functional, cell-based.
The nature of data set [18]: Antiproliferative activity against human PBMC cells at 10 uM incubated for 48 hrs by MTT assay. The class given is toxicity, cell-based.
Data set [19] in a line: Metabolic stability in mouse hepatocytes assessed as half life at 2 uM measured upto 120 min by LC-MS/MS analysis. The class given is ADME, cell-based, Hepatocyte.
For data set [20], the system named is A549. As to the kind of experiment: In vivo induction of apoptosis in human A549 cells xenografted in athymic nude Crl:NU-Foxn1nu mouse assessed as increase in Bax level at 30 mg/kg, po administered twice a week for 1 month by immunoblot analysis. It is filed as functional, organism-based. As to conditions: time 1.0 months. A general note: In xenograft studies the graft and the host belong to different species.

Data set [21] is described as follows: Antiproliferative activity against human NCI-H1975 cells harboring EGFR T790M mutant incubated for 48 hrs by MTT assay. The class given is functional, cell-based. As to conditions: NCI-H1975, 48 h.
Data set [22] relates to A549. As to the kind of experiment: In vivo anti-migratory activity in human A549 cells xenografted in athymic nude Crl:NU-Foxn1nu mouse assessed as decrease in vimentin mRNA level at 30 mg/kg, po administered twice a week for 1 month by qPCR analysis. The class given is functional, organism-based. As to conditions: time 1.0 months.
For data set [23], the target named is Polyamine deacetylase HDAC10 (Homo sapiens, UniProt Q969S8). Briefly: Inhibition of N-terminal FLAG-tagged recombinant human HDAC10 (2 to 631 residues) extracted from baculovirus infected Sf9 cells by fluorogenic assay.
Data set [24] deals with Cytochrome P450 2C19 (Homo sapiens, UniProt P33261). As to the kind of experiment: Inhibition of CYP2C19 in human liver microsomes preincubated for 10 mins followed by NADPH addition measured after 5 mins by LC-MS/MS analysis. It is filed as ADME, Microsome.
Data set [25] addresses Histone deacetylase 2 (Homo sapiens, UniProt Q92769).
Data set [26] concerns A549. Briefly: In vivo induction of apoptosis in human A549 cells xenografted in athymic nude Crl:NU-Foxn1nu mouse assessed as increase in Bcl-2 level at 30 mg/kg, po administered twice a week for 1 month by immunoblot analysis. It is filed as functional, organism-based. Conditions: time 1.0 months.
A short description of data set [27]: Drug metabolism in human hepatocytes assessed as oxidative deamination M1 metabolite formation at 10 uM by LC-MS/MS analysis. The class given is ADME, cell-based, Hepatocyte.
Data set [28] relates to A549. Briefly: Induction of cell cycle arrest in human A549 cells assessed as accumulation at G1 phase at 500 nM by PI staining based flow cytometry. The class given is functional.
Data set [29] has as its target DNA topoisomerase 2-alpha (Homo sapiens, UniProt P11388). Briefly: Inhibition of human Topo II-alpha-mediated decatenation of kDNA incubated for 30 mins.

Active and inactive are the calls of the source. The rule behind the calls is not given here. A value given as a limit tells only on which side of the number the result lay.

Chain of Histone deacetylase 2 (Q92769 whole entry): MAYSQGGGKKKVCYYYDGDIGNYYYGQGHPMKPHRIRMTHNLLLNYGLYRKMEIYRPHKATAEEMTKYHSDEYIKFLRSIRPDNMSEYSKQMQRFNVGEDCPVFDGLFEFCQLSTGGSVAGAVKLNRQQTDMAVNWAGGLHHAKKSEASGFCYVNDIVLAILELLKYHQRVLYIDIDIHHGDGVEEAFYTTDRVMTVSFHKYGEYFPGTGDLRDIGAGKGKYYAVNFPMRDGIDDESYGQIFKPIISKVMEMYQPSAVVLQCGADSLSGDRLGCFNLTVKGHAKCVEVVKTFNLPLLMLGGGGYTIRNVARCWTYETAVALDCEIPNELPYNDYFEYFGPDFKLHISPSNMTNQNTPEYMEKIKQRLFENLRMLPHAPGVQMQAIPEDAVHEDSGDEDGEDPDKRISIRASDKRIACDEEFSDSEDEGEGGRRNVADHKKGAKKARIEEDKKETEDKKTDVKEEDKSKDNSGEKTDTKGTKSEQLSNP
Chain of Polyamine deacetylase HDAC10 (Q969S8 whole entry, the tested form may be a part): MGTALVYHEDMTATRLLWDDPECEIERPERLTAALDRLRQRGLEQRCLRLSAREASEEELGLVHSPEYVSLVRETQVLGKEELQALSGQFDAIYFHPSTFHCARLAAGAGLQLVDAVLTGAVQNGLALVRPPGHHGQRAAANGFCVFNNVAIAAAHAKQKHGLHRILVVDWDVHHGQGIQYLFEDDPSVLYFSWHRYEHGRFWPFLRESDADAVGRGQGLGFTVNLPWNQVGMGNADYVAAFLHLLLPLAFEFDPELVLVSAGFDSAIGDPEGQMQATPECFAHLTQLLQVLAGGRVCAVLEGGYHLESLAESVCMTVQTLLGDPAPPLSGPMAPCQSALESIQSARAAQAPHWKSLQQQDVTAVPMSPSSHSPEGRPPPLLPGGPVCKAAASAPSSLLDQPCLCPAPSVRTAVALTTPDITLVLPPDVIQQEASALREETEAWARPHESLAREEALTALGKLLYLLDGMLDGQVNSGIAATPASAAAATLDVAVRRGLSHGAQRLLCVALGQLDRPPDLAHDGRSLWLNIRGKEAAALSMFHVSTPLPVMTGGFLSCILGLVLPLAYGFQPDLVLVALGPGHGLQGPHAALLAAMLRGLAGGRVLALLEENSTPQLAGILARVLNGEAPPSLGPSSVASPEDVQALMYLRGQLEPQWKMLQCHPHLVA
Chain of DNA topoisomerase 2-alpha (P11388 whole entry): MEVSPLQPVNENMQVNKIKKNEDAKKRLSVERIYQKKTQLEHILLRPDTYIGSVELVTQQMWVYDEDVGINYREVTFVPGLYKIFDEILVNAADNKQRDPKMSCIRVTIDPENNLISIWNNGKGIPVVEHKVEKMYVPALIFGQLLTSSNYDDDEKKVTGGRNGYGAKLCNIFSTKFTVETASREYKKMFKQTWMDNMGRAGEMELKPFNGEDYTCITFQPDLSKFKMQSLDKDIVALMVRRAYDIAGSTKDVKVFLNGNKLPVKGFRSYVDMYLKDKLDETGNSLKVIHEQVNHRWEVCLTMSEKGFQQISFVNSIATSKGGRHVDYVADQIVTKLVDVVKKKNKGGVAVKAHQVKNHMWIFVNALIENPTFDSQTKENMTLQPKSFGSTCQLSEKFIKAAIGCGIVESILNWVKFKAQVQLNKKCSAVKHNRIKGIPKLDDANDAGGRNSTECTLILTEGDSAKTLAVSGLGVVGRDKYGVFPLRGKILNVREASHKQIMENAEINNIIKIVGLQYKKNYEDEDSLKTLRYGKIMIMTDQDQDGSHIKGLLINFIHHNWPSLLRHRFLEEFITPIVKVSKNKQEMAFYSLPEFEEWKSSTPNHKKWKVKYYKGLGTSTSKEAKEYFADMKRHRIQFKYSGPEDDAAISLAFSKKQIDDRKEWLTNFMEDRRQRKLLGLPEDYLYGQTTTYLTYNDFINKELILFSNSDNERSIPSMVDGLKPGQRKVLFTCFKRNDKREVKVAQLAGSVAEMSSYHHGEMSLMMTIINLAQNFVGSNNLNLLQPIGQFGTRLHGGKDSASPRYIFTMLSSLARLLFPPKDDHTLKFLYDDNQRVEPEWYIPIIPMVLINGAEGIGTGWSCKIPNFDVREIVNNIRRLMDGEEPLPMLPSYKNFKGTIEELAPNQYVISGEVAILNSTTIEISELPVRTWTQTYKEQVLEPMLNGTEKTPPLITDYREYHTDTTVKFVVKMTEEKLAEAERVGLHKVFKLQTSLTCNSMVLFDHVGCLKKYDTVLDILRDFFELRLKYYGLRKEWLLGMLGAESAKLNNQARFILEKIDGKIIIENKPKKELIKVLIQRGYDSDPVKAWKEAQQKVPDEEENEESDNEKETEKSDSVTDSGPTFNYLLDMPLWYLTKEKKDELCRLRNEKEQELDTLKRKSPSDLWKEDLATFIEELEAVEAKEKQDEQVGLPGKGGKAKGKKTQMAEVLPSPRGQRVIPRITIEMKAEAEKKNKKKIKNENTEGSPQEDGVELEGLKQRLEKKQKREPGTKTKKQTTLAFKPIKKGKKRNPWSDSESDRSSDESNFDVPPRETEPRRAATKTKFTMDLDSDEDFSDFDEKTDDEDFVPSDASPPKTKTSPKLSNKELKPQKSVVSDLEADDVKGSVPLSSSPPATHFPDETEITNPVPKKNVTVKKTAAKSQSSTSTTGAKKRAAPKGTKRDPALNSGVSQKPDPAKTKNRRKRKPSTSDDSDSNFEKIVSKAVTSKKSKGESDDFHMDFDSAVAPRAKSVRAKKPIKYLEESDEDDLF
Chain of Cytochrome P450 2C19 (P33261 whole entry): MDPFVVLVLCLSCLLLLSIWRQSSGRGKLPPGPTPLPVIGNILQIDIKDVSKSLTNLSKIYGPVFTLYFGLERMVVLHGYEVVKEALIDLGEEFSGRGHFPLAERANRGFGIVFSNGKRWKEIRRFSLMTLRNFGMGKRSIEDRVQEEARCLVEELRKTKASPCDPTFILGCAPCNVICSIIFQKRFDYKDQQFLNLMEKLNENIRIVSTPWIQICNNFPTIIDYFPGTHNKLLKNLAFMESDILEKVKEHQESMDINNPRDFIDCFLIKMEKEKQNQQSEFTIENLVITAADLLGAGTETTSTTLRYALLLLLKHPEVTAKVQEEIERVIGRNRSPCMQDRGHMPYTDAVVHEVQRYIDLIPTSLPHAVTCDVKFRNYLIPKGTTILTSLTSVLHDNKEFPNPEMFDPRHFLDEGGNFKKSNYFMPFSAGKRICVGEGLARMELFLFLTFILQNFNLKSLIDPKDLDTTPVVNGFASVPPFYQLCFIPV
Chain of Histone deacetylase 5 (Q9UQL6 whole entry, the tested form may be a part): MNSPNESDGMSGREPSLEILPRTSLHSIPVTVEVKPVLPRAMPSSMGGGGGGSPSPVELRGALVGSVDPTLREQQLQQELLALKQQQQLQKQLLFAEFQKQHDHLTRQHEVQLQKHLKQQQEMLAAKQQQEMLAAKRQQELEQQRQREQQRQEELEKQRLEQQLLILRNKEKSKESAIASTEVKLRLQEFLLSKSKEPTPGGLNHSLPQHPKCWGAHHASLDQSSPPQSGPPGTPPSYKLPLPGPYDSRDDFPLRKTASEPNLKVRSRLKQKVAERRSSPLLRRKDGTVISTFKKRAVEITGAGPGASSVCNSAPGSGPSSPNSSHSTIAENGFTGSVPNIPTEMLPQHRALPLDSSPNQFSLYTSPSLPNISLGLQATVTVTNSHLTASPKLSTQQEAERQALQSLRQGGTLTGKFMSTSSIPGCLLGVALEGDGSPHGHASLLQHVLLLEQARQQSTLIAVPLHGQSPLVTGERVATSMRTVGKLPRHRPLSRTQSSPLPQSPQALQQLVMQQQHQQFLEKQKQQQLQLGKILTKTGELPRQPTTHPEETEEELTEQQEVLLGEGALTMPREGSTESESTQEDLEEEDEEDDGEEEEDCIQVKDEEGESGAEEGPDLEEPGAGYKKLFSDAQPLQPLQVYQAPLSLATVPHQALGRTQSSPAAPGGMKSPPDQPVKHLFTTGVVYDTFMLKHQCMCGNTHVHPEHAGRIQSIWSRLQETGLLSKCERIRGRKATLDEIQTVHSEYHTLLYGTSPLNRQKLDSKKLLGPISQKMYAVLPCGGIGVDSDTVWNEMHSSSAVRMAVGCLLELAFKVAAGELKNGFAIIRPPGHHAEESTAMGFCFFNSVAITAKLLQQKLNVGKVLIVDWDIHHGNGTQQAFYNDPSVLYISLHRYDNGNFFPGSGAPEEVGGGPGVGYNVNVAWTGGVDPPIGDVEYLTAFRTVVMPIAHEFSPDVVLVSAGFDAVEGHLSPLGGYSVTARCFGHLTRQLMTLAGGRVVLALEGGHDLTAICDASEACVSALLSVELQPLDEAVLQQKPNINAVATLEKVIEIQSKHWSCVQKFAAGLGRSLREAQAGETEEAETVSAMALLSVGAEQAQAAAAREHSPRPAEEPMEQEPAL

As for `COc1ccc(-c2ccc3ccc(OCCCCCCC(=O)NO)cc3n2)cc1I`, the outcome in data set [1], in [2], in [4] and in [5] was Active. For the same molecule, in data set [3], the result was inactive.

For the molecule `COc1ccc(-c2ccc3cc(OCCCCCC(=O)NO)ccc3n2)cc1`, the result in data set [6], in data set [9], in [17], in data set [20], in data set [22] and in data set [26] was Active. In addition, the outcome in data set [28] was Active. For the same molecule, the half-life at 2 µM worked out at 45.7 min in data set [7] and 74.3 min in data set [19]. The Drug metabolism entry in data set [8], in [10], in data set [11] and in data set [27] was “metabolite_detected” in each case. Also, the inhibition entry in [12] is “Active”. For the same molecule, the values for the Activity entry in [13], in data set [15] and in data set [18] were “Dose-dependent-effect”, “Non-toxic” and “Non-toxic”, respectively. The CLhep predicted at 2 µM in [14] was 65.9 mL/min/kg. Further, the concentration for half-maximal inhibition (IC50) in data set [16] is 88.2 nM; in [21] it was less than 250 nM; in data set [23], 87.1 nM; in [24], 18000 nM; in [25], 77.4 nM; in data set [29] it was 67800 nM.
